Series [1] has as its system LRV1 (LgyLRV1 capsid levels). Description: microbe, parasite or virus in culture. From the text:
Because LRV1 (like most Totiviridae) is not shed from the cell (33, 34), we developed a flow cytometric assay to measure intracellular LRV1 capsid levels on a per cell basis. To detect LRV1 we used binding to a rabbit anti-LgyLRV1 capsid antiserum (35) followed by detection with Alexa Fluor488-conjugated goat anti-rabbit IgG.
(§1) Parasites were inoculated at 2×10^5 cells/mL into Schneider's media lacking supplemental adenine.
For capsid flow cytometry, 10^7 cells were fixed at room temperature using 2% (wt/vol) paraformaldehyde (Thermo Fisher Scientific) in PBS for 2 minutes. They were then incubated in blocking buffer [10% (vol/vol) normal goat serum (Vector Laboratories, Burlingame, Calif., USA) and 0.2% TRITON X-100 in PBS] for 30 minutes at room temperature. Anti-LgyLRV1 capsid antibody (35) was added (1:20,000 dilution) and incubated at room temperature for 1 hour. After two washes with PBS, cells were resuspended in 200 μL PBS with Alexa Fluor488-labeled goat anti-rabbit IgG (Alexafluor, Invitrogen; 1:1,000; or Thermo Fisher Scientific; 1:2,000 dilution), and incubated 1 hour at room temperature. After two additional washes with PBS, cells were subjected to flow cytometry, gating for single cells using forward and side scatter and the data analyzed using […] software (BD Bioscience, San Jose, Calif., USA).

Series [2] has as its system L. guyanensis (LgyLRV1+). The experiment in a line: Drug-inhibition test: growth of LgyLRV1+ parasites. Type of series: cell-based, Leishmania guyanensis. As to the method: These compounds were examined for their ability to inhibit the growth of LgyLRV1^+ and virus levels by LRV1 capsid flow cytometry.
Most studies were performed using luciferase-expressing transfectants of L. guyanensis (MHOM/BR/78/M4147) described previously [LRV1^+ LgyM4147/SSU:IR2SAT-LUC(b)c3 and LRV^−LgyM4147/pX63HYG/SSU:IR2SAT-LUC(b)c4] (54); these lines are termed LgyLRV1^+ and LgyLRV1^−, respectively. Two strains of LRV1^+L. braziliensis were examined: LEM2780 (MHOM/BO/90/CS) and LEM3874 (MHOM/BO/99/IMT252 no. 3) (12). Parasites were grown in Schneider's media (Sigma Aldrich, St. Louis, Mo., USA) prepared according to the supplier's instructions with pH adjusted to 6.5 and supplemented with 0.76 mM hemin, 2 μg/mL biopterin, 50 U/mL penicillin, 50 μg/mL streptomycin, and 10% (vol/vol) heat-inactivated FBS. Cell concentrations were determined using a Coulter Counter ([…], Indianapolis, Ind., USA).
as §1

Series [3] relates to Zika virus. The note with it: cultured mammalian cells; read-out: EC50 against Zika virus; cited from earlier work.
The conditions of series [4]: animal models; cited from earlier work.
Series [5] deals with Lgy LRV1 RDRP (Leishmania RNA virus 1 - 4, UniProt Q02382). Description: RDRP assay of purified virions, [α-32P]UTP incorporation. Format: biochemical, Leishmania RNA virus 1 (Lgy strain M4147). The settings on record: highest concentration tested 600 μM. As to the method: RDRP assays were carried out with LRV1 virions purified from Lgy strain M4147 by an established cesium chloride (CsCl) equilibrium ultracentrifugation procedure {Widmer, 1989; Widmer, 1990}. Following separation, virus particles were detected and quantified by their reactivity with an anti-capsid antibody (FIG. 21). We reproducibly observed three overlapping ‘peaks’, designated low-, medium-, and high-density (LD, MD and HD) in order of increasing density. […] The densities of the Lgy LRV1 LD, MD and HD peaks were 1.29, 1.36 and 1.41 g/mL, in good agreement with the densities of L-A virus particles bearing ssRNA- and dsRNA- (1.31 and 1.41 g/mL, respectively) {Esteban, 1986}. […]
To measure RDRP activity, purified virions were allowed to incorporate [α-^32P]UTP in the presence of the remaining nucleoside triphosphates for 1 hour, a time chosen to allow one round of transcription or replication of the viral genome {Widmer, 1990}. RNA was purified and separated by native gel electrophoresis, and the products were visualized and quantified. […]
RDRP activity of purified virions was measured using an [α-^32P]UTP incorporation assay described previously{Widmer, 1990}. […] The standards lane was excised and stained with ethidium bromide, while the radiolabeled products were detected by exposing an imaging plate for 24 hours and reading it with a FLA-5100 phosphoimager (Fujifilm, Tokyo, Japan). […]

Molecules are shown by their SMILES. “Also recorded” adds a separate entry of the source.

The text below walks through data of patent US20190307783A1, “USE OF ANTIVIRALS TO INHIBIT PROTOZOAN VIRUSES” (priority 2016, published 2019).

In general, EC50 refers to the concentration that produces a half-maximal response. The inhibition is how much of the control response was suppressed.

Sequence of Lgy LRV1 RDRP (Q02382 whole entry): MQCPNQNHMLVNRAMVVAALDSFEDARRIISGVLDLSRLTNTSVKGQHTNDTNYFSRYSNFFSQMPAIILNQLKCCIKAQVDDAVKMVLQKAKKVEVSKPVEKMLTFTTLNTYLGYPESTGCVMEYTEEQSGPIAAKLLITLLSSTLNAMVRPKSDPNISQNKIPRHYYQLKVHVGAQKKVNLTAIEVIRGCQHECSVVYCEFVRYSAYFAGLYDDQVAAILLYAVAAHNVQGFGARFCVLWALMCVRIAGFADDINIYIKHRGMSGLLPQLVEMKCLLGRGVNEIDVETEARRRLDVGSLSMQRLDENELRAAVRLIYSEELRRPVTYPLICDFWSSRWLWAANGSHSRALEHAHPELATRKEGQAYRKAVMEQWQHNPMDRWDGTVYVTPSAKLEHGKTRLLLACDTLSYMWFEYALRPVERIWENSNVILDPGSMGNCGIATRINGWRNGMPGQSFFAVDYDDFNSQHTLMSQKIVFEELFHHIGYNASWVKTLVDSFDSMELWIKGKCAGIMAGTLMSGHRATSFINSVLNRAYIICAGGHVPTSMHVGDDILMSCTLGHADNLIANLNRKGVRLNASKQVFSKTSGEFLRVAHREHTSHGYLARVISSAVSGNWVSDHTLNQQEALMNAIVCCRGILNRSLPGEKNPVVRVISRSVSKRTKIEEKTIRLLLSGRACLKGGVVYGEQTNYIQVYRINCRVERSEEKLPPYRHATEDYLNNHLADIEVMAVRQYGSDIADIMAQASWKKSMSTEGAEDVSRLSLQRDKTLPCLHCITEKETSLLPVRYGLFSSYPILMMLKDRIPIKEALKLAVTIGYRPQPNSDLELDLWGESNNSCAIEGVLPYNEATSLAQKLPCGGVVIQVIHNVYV

With `C[C@@]1(O)[C@H](O)[C@@H](CO)O[C@H]1n1ccc2c(N)ncnc21` [2′C-methyl-7-deaza-adenosine, 7-deaza-2′-C-methyladenosine], the activity at 100 µM is 10% in series [1] (48 h, read-out: Percent control (LRV1 capsid)) and 20% in series [2] (Leishmania guyanensis, 48 h, LgyLRV1+, tested at 100 μM, growth after 2 days, read-out: Percent control (density)). Moreover, in series [1] (EC50 growth vs EC50 LRV1 capsid), the “Selectivity for LRV1 versus L. guyanensis growth inhibition” value is listed as greater than 20 fold. The “LRV1 capsid (geometric mean FU)” value in series [1] (LgyLRV1+, tested at 100 μM, 2 days) is 27 FU. Also, the EC50 was roughly 5 µM in series [1] (read-out: EC50 for LRV1 capsid inhibition); greater than 100 µM in series [2] (Leishmania guyanensis, L. guyanensis, relative cellular growth rate, titration, read-out: EC50 for parasite growth); 10 µM in series [3]. Moreover, the “Reduction in LRV1 capsid levels” value in series [1] (tested at 100 μM) is listed as 12 fold. In series [2] (Leishmania guyanensis, tested at 100 μM, read-out: Inhibition of parasite density), the inhibition at 100 µM worked out at 90%. Further, in series [2] (LgyLRV1+, tested at 100 μM, growth after 2 days), the “Density (cells/mL)” value was 3.38E+6 cells/mL. Further, the Serum half-life in series [4] was 1.6 h.
For `Nc1ncnc2c1ncn2[C@H]1C[C@H](O)[C@@H](COP(=O)(O)OP(=O)(O)OP(=O)(O)O)O1` [dATP], the “Inhibition of RDRP activity, in words” value in series [5] was “failed to inhibit; also recorded: completely inactive”.
